Test results from patent publication US9988405B2, “O-phenyl chalcone compounds and uses thereof” (Neopanora Bio-technology (Zhuhai) Ltd., priority 2014, dated 2018).
Like-named read-outs stand apart in the source and are kept apart here.

Tests used:
Format in all cases: cell-based
[1] = tested on: doxorubicin resistant breast cancer cell MCF-7/DOX; experiment: SRB anti-proliferative assay, drug-resistant MCF-7/DOX; conditions: Homo sapiens, MCF7-DOX, read-out: Anti-proliferative IC50, MCF-7/DOX
Description: (§1) The present example evaluated the anti-tumor activity of the molecules provided by the present invention. The present example mainly used a method with SRB (sulforhodamine B) dying, in which proteins in the cell were stained with SRB dye to determine protein content in the cell so as to characterize cell growth density. Firstly, the test compound was formulated into a stock solution (10 mM), which was stored at 4° C. in a refrigerator. Prior to beginning the assay, the stock solution was diluted with DMSO into a series of different concentrations. The required concentrations were obtained by diluting with complete growth medium. Well growing cells were seeded in a 96-well plate (5000 cells/well, 100 uL) and cultured in an incubator at 37° C., 5% CO2, and 90% RH. 24 h later, the prepared compound solution (100 μL) was slowly added to cell solution in the 96-well plate, and the well with DMSO (final concentration 0.5%) instead of the drug was used as a drug free control. The plate was incubated for 48 h. In addition, a day 0 plate that was drug free was directly detected after cell seeded in the plate for 24 h. The 96-well plate was taken out and added with trichloroacetic acid (50 μL, final concentration 10%). The plate was incubated at 4° C. for 1 h to fix the cells.
(§2) The plate was washed with ultrapure water and air-dried. The plate was then stained with SRB dye (0.4% in 1% acetic acid, 100 μL) for 30 min at room temperature. The plate was then washed with 1% acetic acid and then air-dried. A Tris base solution (100 μL, 10 mM, pH10.4) was added, after which the plate was gently shaken for 1 h on an orbital shaker to ensure that the dyes were completed dissolved. The optical density (OD) was recorded on a TECAN Infinite M200 Pro multimode reader at 515 nm. The cell growth (% of control)=(OD value of wells added with drug−mean OD value of Day 0 plate)/(OD value of DMSO drug-free control well−mean OD value of Day 0 plate)*100.
(§3) We also evaluated the anti-proliferation activities of selected compounds against drug-resistant cancer cell lines.

[2] = tested on: human ovary cancer cells A2780; experiment: SRB anti-proliferative assay, A2780; conditions: read-out: Anti-proliferative IC50, A2780
Description: as §1, §2

[3] = tested on: human colon cancer cells SW480; experiment: SRB anti-proliferative assay, SW480; conditions: read-out: Anti-proliferative IC50, SW480
Description: as §1, §2

[4] = tested on: human colon cancer cells HCT8; experiment: SRB anti-proliferative assay, HCT-8; conditions: read-out: Anti-proliferative IC50, HCT-8
Description: as §1, §2

[5] = tested on: human lung cancer cells A549; experiment: SRB anti-proliferative assay, A549; conditions: read-out: Anti-proliferative IC50, A549
Description: as §1, §2

[6] = tested on: incristine resistant human ileocecum carcinoma cell HCT-8/VCT; experiment: SRB anti-proliferative assay, drug-resistant HCT-8/VCT; conditions: HCT8/VCT, read-out: Anti-proliferative IC50, HCT-8/VCT
Description: as §1, §2, §3

[7] = tested on: human nasopharyngeal carcinoma cells CNE2; experiment: SRB anti-proliferative assay, CNE2; conditions: read-out: Anti-proliferative IC50, CNE2
Description: as §1, §2

[8] = tested on: cis-platinum resistant human lung cancer cell A549/CDDP; experiment: SRB anti-proliferative assay, drug-resistant A549/CDDP; conditions: read-out: Anti-proliferative IC50, A549/CDDP
Description: as §1, §2, §3

[9] = tested on: human breast cancer cells MCF7; experiment: SRB anti-proliferative assay, MCF-7; conditions: read-out: Anti-proliferative IC50, MCF-7
Description: as §1, §2

[10] = tested on: human liver cancer cell HepG2; experiment: SRB anti-proliferative assay, HepG2; conditions: read-out: Anti-proliferative IC50, HepG2
Description: as §1, §2

[11] = tested on: Paclitaxel-resistant human ovarian carcinoma cell A2780/TAX; experiment: SRB anti-proliferative assay, drug-resistant A2780/TAX; conditions: read-out: Anti-proliferative IC50, A2780/TAX
Description: as §1, §2, §3

[12] = doxorubicin resistant MCF-7/DOX, SRB
[13] = vincristine-resistant HCT-8/VCT, SRB
[14] = cis-platinum resistant A549/CDDP, SRB
[15] = paclitaxel-resistant A2780/TAX, SRB

| Compound | IC50 [1, 12] | IC50 ([2]; A2780, SRB, 48 h) | IC50 ([3]; SW480, SRB, 48 h) | IC50 ([4]; HCT-8, SRB, 48 h) | IC50 ([5]; A549, SRB, 48 h) | IC50 [6, 13] | IC50 ([7]; CNE-2, CNE2, SRB, 48 h) | IC50 [8, 14] | IC50 ([9]; MCF7, MCF-7, SRB, 48 h) | IC50 ([10]; HepG2, SRB, 48 h) | IC50 [11, 15] | also measured |
| --- | --- | --- | --- | --- | --- | --- | --- | --- | --- | --- | --- | --- |
| O=C(/C=C/c1ccc(O)c(S(=O)(=O)O)c1)c1ccccc1-c1cccc(F)c1 [compound 21, (E)-5-(3-(3′-Fluoro[1,1′-biphenyl]-2-yl)-3-oxoprop-1-en-1-yl)-2-Hydroxybenzenesulfonic acid] | 11 nM | 16 nM | 16 nM | 20 nM | 18 nM | 69 nM | 19 nM | 74 nM | 49 nM | 18 nM | 123 nM | – |
| COc1ccc(/C=C/C(=O)c2ccccc2-c2ccc(F)cc2)cc1OP(=O)(O)O [compound 11, (E)-(5-(3-(4′-Fluoro[1,1′-biphenyl]-2-yl)-3-oxoprop-1-en-1-yl)-2-Methoxyphenol) phosphate ester] | – | – | – | – | – | – | – | – | – | – | – | IC50 [1]: 26 nM; IC50 ([2]; A2780, 48 h): 65 nM; IC50 ([3]; SW480, 48 h): 22 nM; IC50 ([4]; HCT-8, 48 h): 88 nM; IC50 ([5]; A549, 48 h): 23 nM; IC50 [6]: 263 nM; IC50 ([7]; CNE-2, 48 h): 52 nM; IC50 ([8]; A549/CDDP): 301 nM; IC50 ([9]; MCF7, 48 h): 96 nM; IC50 ([10]; HepG2, 48 h): 39 nM; IC50 ([11]; A2780/TAX): 125 nM |
| N#Cc1ccc(/C=C/C(=O)c2ccccc2-c2cccc(F)c2)cc1 [compound 14, (E)-1-(3′-Fluoro[1,1′-biphenyl]-2-yl)-3-(4-cyanophenyl)prop-2-en-1-one] | 132 nM | 122 nM | 43 nM | 102 nM | 88 nM | 386 nM | 61 nM | 468 nM | 128 nM | 65 nM | 375 nM | – |
| O=C(/C=C/c1ccc(N2CCCC2)cc1)c1ccccc1-c1cccc(F)c1 [compound 16, (E)-1-(3′-Fluoro[1,1′-biphenyl]-2-yl)-3-(4-pyrrolidine-1-yl)prop-2-en-1-one] | 75 nM | 106 nM | 52 nM | 123 nM | 86 nM | 166 nM | 36 nM | 135 nM | 106 nM | 71 nM | 149 nM | – |
| COc1ccc(/C=C/C(=O)c2ccccc2-c2cccc(F)c2)cc1OP(=O)(O)O [compound 10, (E)-(5-(3-(3′-Fluoro[1,1′-biphenyl]-2-yl)-3-oxoprop-1-en-1-yl)-2-Methoxyphenol) phosphate ester] | – | – | – | – | – | – | – | – | – | – | – | IC50 [1]: 10 nM; IC50 ([2]; A2780, 48 h): 59 nM; IC50 ([3]; SW480, 48 h): 9 nM; IC50 ([4]; HCT-8, 48 h): 61 nM; IC50 ([5]; A549, 48 h): 10 nM; IC50 [6]: 115 nM; IC50 ([7]; CNE-2, 48 h): 30 nM; IC50 ([8]; A549/CDDP): 102 nM; IC50 ([9]; MCF7, 48 h): 51 nM; IC50 ([10]; HepG2, 48 h): 10 nM; IC50 ([11]; A2780/TAX): 92 nM |
| COc1ccc(/C=C/C(=O)c2ccccc2-c2ccc(OC)c(OC)c2OC)cc1B(O)O [compound 8] | 75 nM | 98 nM | 74 nM | 118 nM | 64 nM | 156 nM | 86 nM | 247 nM | 114 nM | 78 nM | 234 nM | – |
| O=C(/C=C/c1ccc(N(c2ccccc2)c2ccccc2)cc1)c1ccccc1-c1cccc(F)c1 [compound 17, (E)-1-(3′-Fluoro[1,1′-biphenyl]-2-yl)-3-(4-(diphenylamino)phenyl)prop-2-en-1-one] | 66 nM | 133 nM | 51 nM | 137 nM | 74 nM | 176 nM | 43 nM | 165 nM | 123 nM | 93 nM | 158 nM | – |
| CC(=O)O[C@H]1C(=O)[C@@]2(C)[C@H]([C@H](OC(=O)c3ccccc3)[C@]3(O)C[C@H](OC(=O)[C@H](O)[C@@H](NC(=O)c4ccccc4)c4ccccc4)C(C)=C1C3(C)C)[C@]1(OC(C)=O)CO[C@@H]1C[C@@H]2O [TAX, paclitaxel, reference compound] | – | – | – | – | – | 2600 nM | – | 9 nM | – | – | – | – |

Further lines, with some results ahead:

| IC50 [1, 12] | IC50 ([2]; A2780, SRB, 48 h) | IC50 ([3]; SW480, SRB, 48 h) | IC50 ([4]; HCT-8, SRB, 48 h) | IC50 ([5]; A549, SRB, 48 h) | IC50 [6, 13] | IC50 ([7]; CNE-2, CNE2, SRB, 48 h) | IC50 [8, 14] | IC50 ([9]; MCF7, MCF-7, SRB, 48 h) | IC50 ([10]; HepG2, SRB, 48 h) | IC50 [11, 15] | Compound | also measured |
| --- | --- | --- | --- | --- | --- | --- | --- | --- | --- | --- | --- | --- |
| 74 nM | 62 nM | 55 nM | 54 nM | 59 nM | 78 nM | 55 nM | 63 nM | 83 nM | 37 nM | 124 nM | COc1ccc(/C=C/C(=O)c2ccccc2-c2cccc(F)c2)cc1B(O)O [compound 6, (E)-(5-(3-(3′-Fluoro[1,1′-biphenyl]-2-yl)-3-oxoprop-1-en-1-yl)-2-methoxyphenyl)boronic Acid] | – |
| 75 nM | 89 nM | 87 nM | 99 nM | 88 nM | 112 nM | 46 nM | 118 nM | 124 nM | 44 nM | 95 nM | CN(C)c1ccc(/C=C/C(=O)c2ccccc2-c2cccc(F)c2)cc1Br [compound 15, (E)-1-(3′-Fluoro[1,1′-biphenyl]-2-yl)-3-(3-bromo-4-(Dimethylamino)phenyl)prop-2-en-1-one] | – |
| 21 nM | 39 nM | 19 nM | 35 nM | 38 nM | 81 nM | 23 nM | 63 nM | 70 nM | 20 nM | 136 nM | O=C(/C=C/c1ccc(O)c(S(=O)(=O)O)c1)c1ccccc1-c1ccc(F)cc1 [compound 22, (E)-5-(3-(4′-Fluoro[1,1′-biphenyl]-2-yl)-3-oxoprop-1-en-1-yl)-2-Hydroxybenzenesulfonic acid] | – |
| 54 nM | 35 nM | 49 nM | 28 nM | 45 nM | 119 nM | 21 nM | 221 nM | 79 nM | 29 nM | 120 nM | O=C(O)c1cccc(/C=C/C(=O)c2ccccc2-c2cccc(F)c2)c1 [compound 20] | – |
| 14600 nM | 83 nM | 98 nM | 165 nM | 291 nM | 3420 nM | 75 nM | 290 nM | 138 nM | 170 nM | 1940 nM | COc1cccc2c1C(=O)c1c(O)c3c(c(O)c1C2=O)C[C@@](O)(C(=O)CO)C[C@@H]3O[C@H]1C[C@H](N)[C@H](O)[C@H](C)O1 [DOX, doxorubicin, reference compound] | – |
| 4250 nM | – | – | – | – | 1920 nM | – | 56 nM | – | – | 927 nM | CC[C@]1(O)C[C@H]2CN(CCc3c([nH]c4ccccc34)[C@@](C(=O)OC)(c3cc4c(cc3OC)N(C=O)[C@H]3[C@@](O)(C(=O)OC)[C@H](OC(C)=O)[C@]5(CC)C=CCN6CC[C@]43[C@@H]65)C2)C1 [VCT, vincristine, reference compound] | – |
